Active and inactive are the calls of the source. No cut-off for these calls is given here.

What is called inhibition is the percentage by which the read-out fell short of the control. What is called GI50 is the concentration that inhibits growth by half. One may read the IC50 as the point on the concentration scale where inhibition reaches its midpoint. A word on the solubility: it is how much of the substance goes into solution per volume.

Data set [1] can be described thus: Stability in water assessed as compound hydrolysis at 20 uM after 1 week at 4 degC by HPLC method. The data set is classed as physicochemical. The following applies: buffer, 168 h.
Data set [2] addresses T1, Procathepsin L (Homo sapiens, UniProt P07711). Description: Inhibition of human liver cathepsin-L at 10 uM using Z-FR-AMC as substrate preincubated for 5 mins followed by substrate addition measured at 15 sec interval for 5 mins in presence of 0.01% Brij35 by fluorometric method relative to control.
Target sequence in this assay (P07711 114-333 limits assumed): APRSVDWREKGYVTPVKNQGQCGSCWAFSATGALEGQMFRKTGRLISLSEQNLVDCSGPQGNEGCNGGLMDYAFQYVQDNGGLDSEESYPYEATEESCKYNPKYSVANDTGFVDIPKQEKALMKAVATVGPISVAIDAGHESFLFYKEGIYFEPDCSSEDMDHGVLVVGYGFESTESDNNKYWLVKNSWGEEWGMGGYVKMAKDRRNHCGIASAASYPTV
The nature of data set [3]: Retention time in pH 8.6 glycine buffer after 48 hrs at 37 degC by HPLC method.
The nature of data set [4]: Prodrug activation in pH 8.6 glycine buffer assessed as KGP94 formation after 48 hrs at 37 degC in absence of alkaline phosphatase by HPLC method.
Data set [5] in a line: Cytotoxicity against HUVEC assessed as growth inhibition after 48 hrs by SRB assay. The class given is cell-based. The following applies: human, HUVEC cells. In general terms: The SRB assay estimates cell density from bound dye.
Data set [6] deals with T1, Procathepsin L. Description: Inhibition of human liver cathepsin-L using Z-FR-AMC as substrate preincubated for 5 mins followed by substrate addition measured at 15 sec interval for 5 mins by fluorometric method.
Target sequence in this assay (P07711 whole entry): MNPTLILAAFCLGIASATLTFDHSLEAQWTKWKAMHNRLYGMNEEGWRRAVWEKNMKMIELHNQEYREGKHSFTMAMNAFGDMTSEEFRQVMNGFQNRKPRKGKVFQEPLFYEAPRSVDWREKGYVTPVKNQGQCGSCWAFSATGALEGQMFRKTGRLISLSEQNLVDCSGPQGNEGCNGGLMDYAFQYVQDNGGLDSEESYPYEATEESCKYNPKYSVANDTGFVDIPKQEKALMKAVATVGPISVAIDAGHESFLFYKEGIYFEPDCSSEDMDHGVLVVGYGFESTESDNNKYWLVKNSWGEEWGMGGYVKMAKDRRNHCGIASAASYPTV
Data set [7] in a line: Aqueous solubility of the compound in water at 4 g by reversed phase column chromatography. The data set is classed as physicochemical.
The target of data set [8] is T1, Procathepsin L. Put plainly: Inhibition of human liver cathepsin-L at 10 uM using Z-FR-AMC as substrate preincubated for 5 mins followed by substrate addition measured at 15 sec interval for 5 mins in presence of 0.1% Tween or 0.1% CHAPS by fluorometric method relative to control.
Target sequence in this assay (P07711 114-333 limits assumed): as the sequence (P07711 114-333 limits assumed) above
The next data set has as its system MDA-MB-231. Description: Anti-migratory activity against human MDA-MB-231 cells assessed as delay in wound closure at 15 uM after 42 hrs by scratch assay. The class given is functional, cell-based.
A short description of data set [9]: Prodrug activation in water assessed as assessed as KGP94 formation at 20 uM after 1 week at 4 degC by HPLC method.
In data set [10] the target is T2, Cathepsin B (Homo sapiens, UniProt P07858). Description: Inhibition of human liver cathepsin-B at 10 uM using Z-RR-AMC as substrate preincubated for 5 mins followed by substrate addition measured for 5 mins by fluorometric method relative to control.
Data set [11] in a line: Solubility in water. As to conditions: buffer. The class given is physicochemical.
Data set [12] can be described thus: Stability in pH 8.6 glycine buffer assessed as compound hydrolysis after 48 hrs at 37 degC in absence of alkaline phosphatase by HPLC method.
Data set [13] concerns the target T2, Cathepsin B. Description: Inhibition of human liver cathepsin-B using Z-RR-AMC as substrate preincubated for 5 mins followed by substrate addition measured for 5 mins by fluorometric method.
The target in data set [14] is T1, Procathepsin L. Description: Time-dependent inhibition of human liver cathepsin-L assessed as association constant up to 20 uM using 10 uM Z-FR-AMC as substrate preincubated with enzyme followed by substrate addition by fluorometric method.
Target sequence in this assay (P07711 114-333 limits assumed): as above
The target of data set [15] is T1, Procathepsin L. Description: Time-dependent inhibition of human liver cathepsin-L assessed as association constant up to 20 uM using 5 uM Z-FR-AMC as substrate preincubated with enzyme followed by substrate addition by fluorometric method.
Target sequence in this assay (P07711 114-333 limits assumed): as above
The target in data set [16] is T1, Procathepsin L. Put plainly: Time-dependent inhibition of human liver cathepsin-L up to 20 uM using Z-FR-AMC as substrate preincubated with enzyme followed by substrate addition by fluorometric method.
Target sequence in this assay (P07711 114-333 limits assumed): as above
The target of data set [17] is T1, Procathepsin L. Description: Time-dependent inhibition of human liver cathepsin-L assessed as dissociation constant up to 20 uM using 10 uM Z-FR-AMC as substrate preincubated with enzyme followed by substrate addition by fluorometric method.
Target sequence in this assay (P07711 114-333 limits assumed): as above
The target of data set [18] is T1, Procathepsin L. Put plainly: Covalent/reversible inhibition of human liver cathepsin-L using Z-FR-AMC as substrate preincubated for 5 mins followed by substrate addition measured at 15 sec interval for 5 mins by Morrison's equation analysis. The following applies: read-out: Ki(app).
Target sequence in this assay (P07711 whole entry): as the sequence (P07711 whole entry) above
The target of data set [19] is Matrix metalloproteinase-9 (Homo sapiens) (UniProt P14780). Description: Inhibition of recombinant human MMP9 at 10 uM using NFF2 as substrate by fluorometric method relative to control.
Sequence of Matrix metalloproteinase-9 (Homo sapiens) (P14780 whole entry): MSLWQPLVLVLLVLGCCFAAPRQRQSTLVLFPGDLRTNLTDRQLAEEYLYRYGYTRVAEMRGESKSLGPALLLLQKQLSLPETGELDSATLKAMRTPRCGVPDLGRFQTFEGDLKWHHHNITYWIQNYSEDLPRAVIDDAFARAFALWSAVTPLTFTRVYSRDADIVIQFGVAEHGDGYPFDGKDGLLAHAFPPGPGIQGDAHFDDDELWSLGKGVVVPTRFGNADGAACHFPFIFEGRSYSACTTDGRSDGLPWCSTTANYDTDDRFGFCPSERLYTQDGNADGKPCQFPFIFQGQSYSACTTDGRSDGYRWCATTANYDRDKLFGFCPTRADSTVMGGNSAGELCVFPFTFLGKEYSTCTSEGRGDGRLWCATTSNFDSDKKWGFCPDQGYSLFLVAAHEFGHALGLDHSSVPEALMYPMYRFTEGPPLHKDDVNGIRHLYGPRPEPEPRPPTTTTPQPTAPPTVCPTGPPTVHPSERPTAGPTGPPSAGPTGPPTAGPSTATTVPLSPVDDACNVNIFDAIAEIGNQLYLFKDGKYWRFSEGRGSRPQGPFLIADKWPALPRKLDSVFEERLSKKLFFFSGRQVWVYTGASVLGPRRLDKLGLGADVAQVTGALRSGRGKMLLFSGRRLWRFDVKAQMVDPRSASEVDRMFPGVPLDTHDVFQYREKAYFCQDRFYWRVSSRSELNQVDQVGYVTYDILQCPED
Data set [20] shares this target. Put plainly: Inhibition of recombinant human MMP9 at 1 uM using NFF2 as substrate by fluorometric method relative to control.
The next data set has as its target T3, Caspase-3 (Homo sapiens) (UniProt P42574).
T3 sequence (whole entry): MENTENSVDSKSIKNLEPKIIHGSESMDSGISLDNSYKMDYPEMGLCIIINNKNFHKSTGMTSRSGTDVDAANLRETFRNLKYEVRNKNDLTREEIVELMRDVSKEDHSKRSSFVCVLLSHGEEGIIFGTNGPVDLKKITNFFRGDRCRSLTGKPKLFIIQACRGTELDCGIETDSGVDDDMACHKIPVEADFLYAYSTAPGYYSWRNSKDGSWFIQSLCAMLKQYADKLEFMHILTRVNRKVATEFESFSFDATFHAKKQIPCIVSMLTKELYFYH
Put plainly: Inhibition of recombinant human caspase-3 at 1 uM using Ac-DMQD-AMC as substrate measured at 15 sec interval over 30 mins by fluorogenic assay relative to control.

Data set [21] is described as follows: Aqueous solubility of the compound in water at 2.02 mg by reversed phase column chromatography. The data set is classed as physicochemical.

With `NC(=S)N/N=C(/c1cccc(Br)c1)c1cccc(OP(=O)([O-])[O-])c1.[Na+].[Na+]`, the Stability result in [1] was “Stable”. Also, the values for the inhibition on Procathepsin L [2], at Procathepsin L [8] and against Cathepsin B [10] were 18%, less than 50% and greater than 50%, respectively. This compound also returned a Retention time in [3] of 1.6 min. Further, the Drug metabolism entry in data set [4] was “Metabolite detected”; in data set [9], “Metabolite not detected”. The GI50 at 48 h in data set [5] was 20.2 µM. The half-inhibitory concentration (IC50) against Procathepsin L [6] is greater than 10 µM. In addition, the results for the solubility in [7] and in data set [11] were greater than 400 mg/mL and “Soluble”, respectively. In addition, the outcome in the data set on MDA-MB-231 was Active. In [12], the Drug degradation was determined as 5.6%.
For the compound `NC(=S)NN=C(c1cc(O)cc(Br)c1)c1cc(O)cc(Br)c1`, the results for the inhibition on Procathepsin L [2] and against Cathepsin B [10] were 40% and greater than 50%, respectively. Besides, the IC50 on Procathepsin L [6] and against Cathepsin B [13] was greater than 10 µM each time.
Take `NC(=S)N/N=C(\c1cc(O)cc(O)c1)c1cccc(Br)c1`: the inhibition is 23% on Procathepsin L [2] and greater than 50% on Cathepsin B [10]. Also, the IC50 against Procathepsin L [6] is no less than 10 µM; at Cathepsin B [13], greater than 10 µM.
The corresponding values for `COc1cc(OC)cc(/C(=N\NC(N)=S)c2cccc(Br)c2)c1` are 46%, greater than 50%, greater than 10 µM and greater than 10 µM.
In the same order, the values of `COc1cc(OC)cc(/C(=N\NC(N)=S)c2cc(Br)cc(Br)c2)c1` are 52%, greater than 50%, no less than 10 µM and greater than 10 µM.
In the same order, the values of `NC(=S)N/N=C(\c1cc(O)cc(O)c1)c1cc(Br)cc(Br)c1` are 44%, greater than 50%, greater than 10 µM and greater than 10 µM.
With `NC(=S)N/N=C(\c1cccc(O)c1)c1cc(Br)cc(Br)c1`, the inhibition on Procathepsin L [2] was 94%; on Cathepsin B [10] it was greater than 50%. For the same compound, the K worked out at 1.5 ×10³ /M/s at Procathepsin L [14], 2 ×10³ /M/s at Procathepsin L [15] and 1 ×10⁻³ /s on Procathepsin L [17]. The IC50 at Procathepsin L [6] was 0.202 µM; against Cathepsin B [13], greater than 10 µM. Moreover, the inhibition entry at Procathepsin L [8] is “Active”. Moreover, the TDI result on Procathepsin L [16] was “Active”. Moreover, the result with MDA-MB-231 was Active. The Ki on Procathepsin L [18] worked out at 0.0084 µM.
With `NC(=S)N/N=C(\c1cccc(O)c1)c1cccc(Br)c1`, the inhibition on Procathepsin L [2] was 88 to 91%; in data set [19], 15%; in data set [20], 3%; on Caspase-3 (Homo sapiens) it was 4.5%. In addition, in [3], the Retention time came to 5.4 min. The inhibition entry at Procathepsin L [8] was “Active”. Besides, the result in the data set with MDA-MB-231 was Active. The Ki on Procathepsin L [18] amounted to 0.0037 µM. In [21], the solubility is less than 0.67 mg/mL.

Source of the values: ChEMBL document CHEMBL3994629, “Synthesis and biological evaluation of a water-soluble phosphate prodrug salt and structural analogues of KGP94, a lead inhibitor of cathepsin L” (Bioorg Med Chem Lett, 2017).
